In ChEMBL document CHEMBL1201862, “PubChem BioAssay data set” (2004):
Active and inactive are the calls of the source.

Key:
[1] = biological target: Glyceraldehyde-3-phosphate dehydrogenase (Homo sapiens, UniProt P04406)
[2] = biological target: Glucose-6-phosphate 1-dehydrogenase (Homo sapiens, UniProt P11413); assay: inhibition of Homo sapiens G6PD, dose series – biochemical, fluorescence, selectivity assay for P. falciparum G6PD inhibitor project, dose response (AID 504792); format: functional
Chain of Glucose-6-phosphate 1-dehydrogenase (P11413 whole entry): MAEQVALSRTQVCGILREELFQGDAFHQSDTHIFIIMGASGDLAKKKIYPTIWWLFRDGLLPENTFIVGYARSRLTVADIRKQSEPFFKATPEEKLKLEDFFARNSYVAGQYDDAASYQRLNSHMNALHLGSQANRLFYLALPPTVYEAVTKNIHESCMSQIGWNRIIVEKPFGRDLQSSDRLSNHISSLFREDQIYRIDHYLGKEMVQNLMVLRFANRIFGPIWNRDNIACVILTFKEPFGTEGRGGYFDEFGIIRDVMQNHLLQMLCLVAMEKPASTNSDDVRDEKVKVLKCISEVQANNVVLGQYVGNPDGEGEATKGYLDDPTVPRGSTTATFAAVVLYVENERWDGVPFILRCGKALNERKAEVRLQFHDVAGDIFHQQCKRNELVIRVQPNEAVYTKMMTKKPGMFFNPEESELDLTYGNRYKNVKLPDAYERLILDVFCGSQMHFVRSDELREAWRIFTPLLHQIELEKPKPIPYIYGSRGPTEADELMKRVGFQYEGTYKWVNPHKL

[3] = growth inhibition of yeast DHODH-expressing 3D7 parasites – SYBR Green, dry powder samples, dose response (AID 1159570); format: functional, cell-based;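 also: parasite growth measured after 72 hours of compound exposure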
[4] = P. falciparum Dd2 growth inhibitors, dose response, SYBR Green, cherry-picked samples (AID 1159567); format: functional, cell-based
[5] = Dd2 malaria parasite growth inhibition potency – SYBR Green, dry powder samples, dose response (AID 1159566); format: functional, cell-based;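 also: potency for growth inhibition with lower SYBR green DNA signal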
[6] = growth inhibition of PfATP4-mutant resistant parasites – NITD609-resistant line, SYBR Green, dry powder, dose response (AID 1159571); format: functional, cell-based;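 also: parasites synchronized at ring stage by sorbitol before testing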
Large T antigen = Large T antigen (Simian virus 40, UniProt P03070); format: functional, Betapolyomavirus macacae;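 also: Confirmatory-stage PubChem screen for compounds that inhibit SV40 T antigen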
Chain of Large T antigen (P03070 whole entry): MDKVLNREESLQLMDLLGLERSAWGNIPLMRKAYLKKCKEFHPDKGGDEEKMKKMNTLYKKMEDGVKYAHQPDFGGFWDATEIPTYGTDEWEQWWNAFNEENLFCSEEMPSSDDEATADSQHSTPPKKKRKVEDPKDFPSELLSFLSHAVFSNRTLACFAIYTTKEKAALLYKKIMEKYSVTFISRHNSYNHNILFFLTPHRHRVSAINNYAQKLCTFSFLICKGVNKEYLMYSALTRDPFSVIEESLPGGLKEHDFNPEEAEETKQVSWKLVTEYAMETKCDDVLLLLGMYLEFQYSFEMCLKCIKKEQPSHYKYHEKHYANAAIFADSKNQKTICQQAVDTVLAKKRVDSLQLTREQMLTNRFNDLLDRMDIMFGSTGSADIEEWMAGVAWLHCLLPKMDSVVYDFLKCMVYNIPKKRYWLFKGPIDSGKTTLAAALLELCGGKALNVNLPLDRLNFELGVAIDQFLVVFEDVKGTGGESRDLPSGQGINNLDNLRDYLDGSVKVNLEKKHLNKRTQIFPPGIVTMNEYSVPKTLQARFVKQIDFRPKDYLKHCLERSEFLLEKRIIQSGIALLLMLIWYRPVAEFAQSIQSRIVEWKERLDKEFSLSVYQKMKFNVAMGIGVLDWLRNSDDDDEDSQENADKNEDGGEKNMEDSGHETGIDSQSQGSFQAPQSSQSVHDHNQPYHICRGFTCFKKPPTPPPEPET

[7] = biological target: FAD-linked sulfhydryl oxidase ALR (Homo sapiens, UniProt P55789); assay: ALR-catalysed DTT oxidation blockers – biochemical, H2O2 detection, luminescence, cherry-pick, dose response (AID 493248)
Chain of FAD-linked sulfhydryl oxidase ALR (P55789 whole entry): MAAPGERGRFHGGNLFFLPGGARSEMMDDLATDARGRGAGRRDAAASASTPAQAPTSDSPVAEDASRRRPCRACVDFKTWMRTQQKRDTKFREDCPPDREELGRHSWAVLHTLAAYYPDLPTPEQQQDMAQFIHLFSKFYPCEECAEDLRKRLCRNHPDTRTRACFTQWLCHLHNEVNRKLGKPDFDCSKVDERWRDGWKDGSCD

[8] = biological target: T1, Rac GTPase-activating protein 1 (Homo sapiens, UniProt Q9H0H5); assay: blockers of MgcRacGAP-driven Rac1 GTP hydrolysis – biochemical, ADP Hunter fluorescence, primary and confirmatory, confirmation (AID 624330); format: functional
T1 sequence (Q9H0H5 whole entry): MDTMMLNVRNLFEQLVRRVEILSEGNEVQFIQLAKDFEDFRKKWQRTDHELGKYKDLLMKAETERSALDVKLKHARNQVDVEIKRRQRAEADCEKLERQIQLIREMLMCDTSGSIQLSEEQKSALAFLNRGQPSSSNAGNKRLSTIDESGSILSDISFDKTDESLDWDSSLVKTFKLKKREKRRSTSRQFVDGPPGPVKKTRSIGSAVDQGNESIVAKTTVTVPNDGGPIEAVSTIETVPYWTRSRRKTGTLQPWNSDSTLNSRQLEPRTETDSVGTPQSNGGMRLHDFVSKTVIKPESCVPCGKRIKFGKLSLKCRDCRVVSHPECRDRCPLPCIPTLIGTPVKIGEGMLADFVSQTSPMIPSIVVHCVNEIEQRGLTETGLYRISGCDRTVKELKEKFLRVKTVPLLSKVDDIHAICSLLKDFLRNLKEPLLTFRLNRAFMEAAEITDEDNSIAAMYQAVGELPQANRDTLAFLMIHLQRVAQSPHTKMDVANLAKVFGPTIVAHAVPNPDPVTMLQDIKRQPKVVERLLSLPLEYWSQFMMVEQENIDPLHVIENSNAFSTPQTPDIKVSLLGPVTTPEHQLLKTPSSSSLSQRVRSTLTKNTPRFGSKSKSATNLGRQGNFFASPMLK

[9] = biological target: DNA dC->dU-editing enzyme APOBEC-3A (Homo sapiens, UniProt P31941); assay: Dose Response confirmation of small molecule APOBEC3A DNA Deaminase Inhibitors via a fluorescence-based single-stranded DNA deaminase assay. [Related pubchem assays (depositor defined):AID493011, AID493024]; format: functional
Chain of DNA dC->dU-editing enzyme APOBEC-3A (P31941 whole entry): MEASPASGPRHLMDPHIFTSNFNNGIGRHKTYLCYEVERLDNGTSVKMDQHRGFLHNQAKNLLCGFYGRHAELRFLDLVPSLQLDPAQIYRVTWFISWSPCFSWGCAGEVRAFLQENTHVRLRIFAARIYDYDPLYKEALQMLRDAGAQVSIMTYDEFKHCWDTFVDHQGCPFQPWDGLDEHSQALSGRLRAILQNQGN

[10] = biological target: DNA dC->dU-editing enzyme APOBEC-3G (Homo sapiens, UniProt Q9HC16); format: functional;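 also: Dose-response counterscreen measuring inhibition of APOBEC3G DNA deaminase activity, run while confirming APOBEC3A inhibitors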
Chain of DNA dC->dU-editing enzyme APOBEC-3G (Q9HC16 whole entry): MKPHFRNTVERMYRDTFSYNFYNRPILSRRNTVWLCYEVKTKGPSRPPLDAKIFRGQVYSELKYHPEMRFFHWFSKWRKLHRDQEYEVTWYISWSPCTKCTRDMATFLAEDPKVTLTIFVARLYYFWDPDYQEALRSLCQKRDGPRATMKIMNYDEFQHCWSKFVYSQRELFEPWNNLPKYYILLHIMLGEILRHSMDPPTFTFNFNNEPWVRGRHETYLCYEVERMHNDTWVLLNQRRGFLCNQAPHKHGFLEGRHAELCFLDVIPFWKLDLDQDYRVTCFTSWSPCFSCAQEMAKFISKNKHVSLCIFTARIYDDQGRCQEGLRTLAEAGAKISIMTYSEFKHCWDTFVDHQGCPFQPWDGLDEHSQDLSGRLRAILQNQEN

Leucine aminopeptidase = biological target: T2, Leucine aminopeptidase (Plasmodium falciparum 3D7, UniProt Q8IL11); assay: P. falciparum M17LAP inhibitors, primary screen, biochemical, fluorogenic H-Leu-NHMec substrate, 1536-well (AID 1619); format: functional
T2 sequence (Q8IL11 whole entry): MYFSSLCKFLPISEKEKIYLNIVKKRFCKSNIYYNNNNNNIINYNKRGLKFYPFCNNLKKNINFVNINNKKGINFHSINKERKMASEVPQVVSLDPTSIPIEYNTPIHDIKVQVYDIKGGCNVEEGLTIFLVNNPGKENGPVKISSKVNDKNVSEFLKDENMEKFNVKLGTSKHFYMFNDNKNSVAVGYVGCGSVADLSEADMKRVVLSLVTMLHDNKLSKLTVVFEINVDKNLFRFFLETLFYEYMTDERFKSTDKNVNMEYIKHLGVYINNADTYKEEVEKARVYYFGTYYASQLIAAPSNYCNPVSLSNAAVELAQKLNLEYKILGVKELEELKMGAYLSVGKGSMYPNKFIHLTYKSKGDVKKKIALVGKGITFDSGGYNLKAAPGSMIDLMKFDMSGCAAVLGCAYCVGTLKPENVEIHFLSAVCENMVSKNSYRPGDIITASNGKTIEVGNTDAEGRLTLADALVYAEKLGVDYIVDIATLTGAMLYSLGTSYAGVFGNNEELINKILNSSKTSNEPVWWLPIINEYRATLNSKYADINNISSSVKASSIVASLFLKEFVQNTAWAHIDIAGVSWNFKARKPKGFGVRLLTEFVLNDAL

[11] = biological target: T3, Carboxy-terminal domain RNA polymerase II polypeptide A small phosphatase 1 (Homo sapiens, UniProt Q9GZU7); assay: CTDSP1 inhibitors, concentration-response, biochemical, absorbance readout, ultra-high-throughput screen actives (AID 540297); format: functional
T3 sequence (Q9GZU7 whole entry): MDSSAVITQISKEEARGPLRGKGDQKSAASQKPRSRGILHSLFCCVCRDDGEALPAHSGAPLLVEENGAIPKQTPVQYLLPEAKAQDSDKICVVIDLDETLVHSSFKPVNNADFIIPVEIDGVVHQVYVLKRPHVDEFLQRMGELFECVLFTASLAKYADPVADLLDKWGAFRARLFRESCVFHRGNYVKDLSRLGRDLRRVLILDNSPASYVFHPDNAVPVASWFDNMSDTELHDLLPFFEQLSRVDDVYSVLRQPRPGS

[12] = biological target: Induced myeloid leukemia cell differentiation protein Mcl-1 (Homo sapiens, UniProt Q07820); format: functional
Chain of Induced myeloid leukemia cell differentiation protein Mcl-1 (Q07820 whole entry): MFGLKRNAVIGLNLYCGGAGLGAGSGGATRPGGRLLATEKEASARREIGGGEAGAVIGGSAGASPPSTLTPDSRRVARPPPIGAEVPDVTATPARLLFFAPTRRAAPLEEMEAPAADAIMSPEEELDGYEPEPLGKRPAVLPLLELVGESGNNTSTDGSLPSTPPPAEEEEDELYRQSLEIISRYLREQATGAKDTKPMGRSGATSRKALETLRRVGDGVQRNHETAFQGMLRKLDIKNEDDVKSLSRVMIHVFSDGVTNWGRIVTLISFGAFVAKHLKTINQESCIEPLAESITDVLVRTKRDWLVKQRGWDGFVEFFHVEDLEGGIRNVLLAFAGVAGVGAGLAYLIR

[13] = biological target: T4, Replicative DNA helicase DnaB (Mycobacterium tuberculosis, UniProt P9WMR3); assay: DnaB intein splicing inhibitors, dose response, biochemical, cell-free fluorescence (AID 449749); format: functional
T4 sequence (P9WMR3 whole entry): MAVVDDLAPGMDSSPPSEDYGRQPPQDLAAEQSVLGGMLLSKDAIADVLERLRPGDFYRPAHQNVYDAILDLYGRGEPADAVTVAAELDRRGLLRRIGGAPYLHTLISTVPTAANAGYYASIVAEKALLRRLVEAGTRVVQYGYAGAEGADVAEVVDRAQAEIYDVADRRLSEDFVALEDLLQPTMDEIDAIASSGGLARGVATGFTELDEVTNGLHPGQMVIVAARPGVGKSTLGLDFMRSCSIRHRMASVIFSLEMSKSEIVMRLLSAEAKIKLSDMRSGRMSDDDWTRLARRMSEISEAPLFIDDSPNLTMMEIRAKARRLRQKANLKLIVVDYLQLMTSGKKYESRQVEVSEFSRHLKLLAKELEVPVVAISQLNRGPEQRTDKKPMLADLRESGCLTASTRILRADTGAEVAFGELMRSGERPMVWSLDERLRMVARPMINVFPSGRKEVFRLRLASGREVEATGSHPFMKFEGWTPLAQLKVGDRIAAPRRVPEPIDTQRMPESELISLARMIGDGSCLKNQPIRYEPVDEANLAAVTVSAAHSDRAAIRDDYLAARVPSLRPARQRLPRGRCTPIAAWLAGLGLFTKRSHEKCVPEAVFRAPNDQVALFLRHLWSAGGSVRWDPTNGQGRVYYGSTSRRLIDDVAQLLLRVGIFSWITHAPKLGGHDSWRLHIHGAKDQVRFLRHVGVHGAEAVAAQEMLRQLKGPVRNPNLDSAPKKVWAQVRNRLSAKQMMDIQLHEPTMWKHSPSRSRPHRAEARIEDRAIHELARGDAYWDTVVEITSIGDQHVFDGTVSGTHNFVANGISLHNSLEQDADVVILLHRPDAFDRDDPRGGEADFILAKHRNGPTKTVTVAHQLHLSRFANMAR

Protein RecA = biological target: T5, Protein RecA (Mycobacterium tuberculosis, UniProt P9WHJ3); assay: Fluorescence Cell-Free Homogeneous Dose Retest to Identify Inhibitors of RecA-Intein Splicing Activity. [Related pubchem assays (depositor defined):AID2097, AID2223, AID489010, AID492950]; format: functional
T5 sequence (P9WHJ3 whole entry): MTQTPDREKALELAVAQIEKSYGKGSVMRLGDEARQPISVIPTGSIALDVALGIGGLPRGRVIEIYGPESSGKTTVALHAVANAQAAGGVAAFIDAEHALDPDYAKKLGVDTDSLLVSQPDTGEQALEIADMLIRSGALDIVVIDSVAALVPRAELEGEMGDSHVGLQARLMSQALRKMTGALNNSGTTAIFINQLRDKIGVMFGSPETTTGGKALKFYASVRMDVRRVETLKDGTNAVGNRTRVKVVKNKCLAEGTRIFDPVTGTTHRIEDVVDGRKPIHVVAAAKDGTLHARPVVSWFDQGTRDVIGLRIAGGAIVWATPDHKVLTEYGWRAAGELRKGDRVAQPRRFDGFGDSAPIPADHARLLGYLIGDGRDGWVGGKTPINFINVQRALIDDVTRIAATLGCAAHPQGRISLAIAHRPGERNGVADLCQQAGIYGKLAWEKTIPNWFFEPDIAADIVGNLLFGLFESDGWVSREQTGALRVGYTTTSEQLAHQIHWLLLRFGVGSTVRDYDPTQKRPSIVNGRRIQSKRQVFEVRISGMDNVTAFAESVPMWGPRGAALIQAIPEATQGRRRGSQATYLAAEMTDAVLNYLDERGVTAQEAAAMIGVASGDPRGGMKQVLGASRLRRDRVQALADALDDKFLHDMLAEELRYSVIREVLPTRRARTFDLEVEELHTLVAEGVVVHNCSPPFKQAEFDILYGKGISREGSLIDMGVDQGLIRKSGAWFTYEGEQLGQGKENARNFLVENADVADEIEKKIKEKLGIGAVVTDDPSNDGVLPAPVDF

Cytochrome P450 2D6 = Cytochrome P450 2D6 (Homo sapiens, UniProt P10635);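 also: CYP2D6 member of a cytochrome P450 panel assay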
Chain of Cytochrome P450 2D6 (P10635 whole entry): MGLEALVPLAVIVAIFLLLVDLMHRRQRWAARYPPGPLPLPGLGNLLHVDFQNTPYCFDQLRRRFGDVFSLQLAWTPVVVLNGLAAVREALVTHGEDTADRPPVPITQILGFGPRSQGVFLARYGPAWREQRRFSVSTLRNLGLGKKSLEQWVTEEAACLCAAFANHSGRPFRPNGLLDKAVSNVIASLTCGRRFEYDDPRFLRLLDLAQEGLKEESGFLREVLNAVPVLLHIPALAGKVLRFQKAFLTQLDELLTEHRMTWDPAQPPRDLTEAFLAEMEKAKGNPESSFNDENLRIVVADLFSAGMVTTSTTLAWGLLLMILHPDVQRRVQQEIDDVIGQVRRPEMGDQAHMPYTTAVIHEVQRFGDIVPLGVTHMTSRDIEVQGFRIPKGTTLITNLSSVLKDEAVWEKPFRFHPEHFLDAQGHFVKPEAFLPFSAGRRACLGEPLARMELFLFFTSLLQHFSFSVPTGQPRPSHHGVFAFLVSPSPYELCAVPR

Chain of Glyceraldehyde-3-phosphate dehydrogenase (P04406 whole entry): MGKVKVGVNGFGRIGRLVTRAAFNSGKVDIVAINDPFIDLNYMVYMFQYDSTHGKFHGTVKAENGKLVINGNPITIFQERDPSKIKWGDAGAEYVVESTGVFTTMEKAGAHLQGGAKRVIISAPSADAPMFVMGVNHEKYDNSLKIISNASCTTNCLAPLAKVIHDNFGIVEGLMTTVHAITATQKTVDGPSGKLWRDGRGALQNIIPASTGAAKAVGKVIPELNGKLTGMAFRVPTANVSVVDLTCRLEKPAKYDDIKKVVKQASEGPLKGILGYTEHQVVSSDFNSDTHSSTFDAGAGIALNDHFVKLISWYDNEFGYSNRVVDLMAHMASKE

CCOc1ccc(Cl)cc1S(=O)(=O)Nc1cccnc1
IC50 [1]: > 100 µM (not active)

COc1ccc(N2CCN(C3=C(Cl)C(=O)N(c4ccc(Cl)nc4)C3=O)CC2)cc1
IC50 [1]: > 50 µM (inconclusive)

O=C(COc1ccccc1F)OCC(=O)c1ccc([N+](=O)[O-])cc1
IC50 [2]: > 80 µM (inactive)

CC(C)NC(=O)N1[C@@H](CO)[C@@H](c2ccccc2)C12CN(Cc1ccc(F)cc1)C2
AC50 [3]: 4 µM (active) | AC50 [4]: 3.25 µM (active) | AC50 [5]: 1.95 µM (active) | AC50 [6]: 2.17 µM (active)

Cc1cc(NS(=O)(=O)c2ccc(Nc3nc(-c4ccc(O)cc4)cs3)cc2)no1
IC50 (Large T antigen): > 100 µM (active) | AC50 [7]: 0.108 µM (active) | IC50 [8]: 30.8 µM (active)

O=C(CSc1n[nH]c(-c2ccncc2)n1)Nc1ccc(Cl)c(Cl)c1
IC50 [9]: 8.81 µM (active) | IC50 [10]: 9.18 µM (active)

CCCC#Cc1ccc2c(c1)O[C@H](CN(C)C(=O)Nc1ccc(OC)cc1)[C@H](C)CN([C@H](C)CO)S2(=O)=O
AC50 [3]: 1.37 µM (active) | AC50 [4]: 1.94 µM (active) | AC50 [5]: 1.82 µM (active) | AC50 [6]: 1.45 µM (active)

O=C1C=C(O)CC(c2ccco2)C1 (stereo not drawn)
IC50 [9]: 14 µM (active) | IC50 [10]: 37.5 µM (active)

O=C(C1CCCC1)N1CC(=O)N2[C@H](CO)[C@H](c3ccc(-c4cccnc4)cc3)[C@H]2C1
AC50 [3]: 2.33 µM (active) | AC50 [4]: 1.47 µM (active) | AC50 [5]: 1.11 µM (active) | AC50 [6]: 1.85 µM (active)

O=C(O)c1cccc(Cn2c(Cl)c(/C=N/NC(=O)c3ccccc3Cl)sc2=O)c1
IC50 (Leucine aminopeptidase): 34.1 µM (active)

CC[N+](CC)(CC)CCOc1ccc(/C=C/c2ccccc2)cc1 [STILONIUM IODIDE]
IC50 [9]: 2.33 µM (active) | IC50 [10]: 2.57 µM (active) | IC50 [11]: 20.2 µM (active)

CCCCOC(=O)Nc1ccc(N(C)C)cc1
IC50 (Large T antigen): 5.43 µM (active) | IC50 [12]: 0.473 µM (not active)

CC(=O)Nc1nnc(SCC(=O)NCC2CCCO2)s1 (stereo not drawn)
IC50 [9]: 38.6 µM (active) | IC50 [10]: 22.5 µM (active)

S=c1[nH]c(-c2ccccc2)nn1-c1ccccc1
IC50 (Leucine aminopeptidase): 11.5 µM (active)

CCOC(=O)COc1ncn(-c2ccccc2)n1
IC50 (Leucine aminopeptidase): 13.9 µM (active)

Cc1ccc(N2C(=O)C(Cl)=C(N3CCN(c4ccccc4)CC3)C2=O)cc1
IC50 [1]: > 50 µM (inconclusive)

COc1ccccc1S(=O)(=O)N(C)C[C@H]1OCc2ccccc2-c2c(n(C)c3ccccc23)C(=O)N([C@@H](C)CO)C[C@@H]1C
AC50 [3]: 2.03 µM (active) | AC50 [4]: 2.1 µM (active) | AC50 [5]: 1.09 µM (active) | AC50 [6]: 1.02 µM (active)

C[C@@H]1CN([C@@H](C)CO)C(=O)c2cccc(NC(=O)c3nc4ccccc4s3)c2O[C@H]1CN(C)C(=O)Nc1ccc2c(c1)OCO2
AC50 [3]: 0.985 µM (active) | AC50 [4]: 2.35 µM (active) | AC50 [5]: 1.37 µM (active) | AC50 [6]: 1.18 µM (active)

C[C@H](CCC(=O)O)[C@H]1CC[C@H]2[C@@H]3CC[C@@H]4C[C@H](O)CC[C@]4(C)[C@H]3CC[C@]12C [LITHOCHOLIC ACID]
IC50 (Large T antigen): 26.1 µM (active) | IC50 [11]: 4.82 µM (active)

Nc1cc(N)c(OCC(F)(F)F)cc1OCC(F)(F)F
IC50 [2]: 32.7 µM (inactive) | AC50 [13]: 7.43 µM (active) | EC50 (Protein RecA): 4.82 µM (active)

O=C(O)C1=CC(=C(c2ccc(O)c(C(=O)O)c2)c2ccc(O)c(C(=O)O)c2)C=CC1=O [AURINTRICARBOXYLIC ACID]
IC50 (Large T antigen): 1.93 µM (active) | AC50 (Cytochrome P450 2D6): 39.8 µM (inconclusive)
